Series [1] concerns P450 drug metabolizing enzyme present in the liver microsome. The series can be described thus: In vitro drug metabolism test using liver microsome. In kind it is in vitro ADME. The note with it: human and rat liver microsome, test compound 20 ng/ml, 37° C., 10, 20 and 30 minutes, residual ratio. As for the experimental part: 1) Human and rat liver microsome suspension (human microsome: Xenotech, rat microsome: Charles River) was diluted with 100 mM Na-K phosphate buffer (pH 7.4) to a protein concentration of 0.5 mg/ml. To a 100 μl portion of this suspension were added 2 μl of a test compound solution (a 10 μg/ml acetonitrile solution), 500 μl of 200 mM Na-K phosphate buffer (pH 7.4), 50 μl of 1 mM EDTA-NaOH (pH 7.4) and 200 μl of purified water, thereby preparing a substrate solution (concentration in the reaction solution: liver microsome (as the protein content) 0.05 mg/ml, test compound 20 ng/ml, 100 mM Na-K phosphate buffer, 0.1 mM EDTA-NaOH).
2) An NADPH production system was prepared by mixing 42 mg of NADP, 5 ml of 100 mM […] (G6P) and 5 ml of 100 mM MgCl2, and adding 57 μl of G6P dehydrogenase (about 1750 U/5 mg/ml) to the mixture. This was heated at 37° C. for 5 minutes and then ice-cooled until its use.
3) A 900 μl portion of the substrate solution was pre-incubated at 37° C. for 5 minutes, and then 100 μl of the NADPH production system was added thereto, following by reaction at 37° C. for 10, 20 and 30 minutes. After termination of the reaction by adding 2 ml of ethyl acetate, the whole was ice-cooled. In this connection, a control sample was prepared by adding 100 μl of the NADPH production system after adding 2 ml of ethyl acetate (0 minute reaction).
4) To the reaction solution was added 100 μl of an internal standard substance having a predetermined concentration (an acetonitrile solution), 1 ml of 0.5 M phosphoric acid and 2 ml of ethyl acetate, followed by shaking for 10 minutes. After 10 minutes of centrifugation at 2,500 rpm, the ethyl acetate layer was separated and evaporated to dryness, and the residue was dissolved in 100 μl of an HPLC mobile phase solvent. The test compound was eluted after about 12 minutes, and the internal standard substance after about 16 minutes, under the following conditions. (HPLC measuring conditions mobile phase: acetonitrile/20 mM ammonium acetate=2:3 (v/v), column: Discovery RP Amide C16, 4.6×35 mm (SUPELCO), flow rate: 0.8 ml/min., detection: UV 286 nm)
5) A ratio (residual ratio) of the peak height ratio after 10, 20 or 30 minutes of the reaction to the peak height ratio of each test compound in the control (peak height ratio to the internal standard substance) was calculated.
A general note: Liver microsomes are vesicles of endoplasmic reticulum, rich in cytochrome P450 enzymes.

Series [2] is described as follows: Oral absorbability and pharmacokinetic profile evaluation test using type IV PDE inhibitory activity as the index. In kind it is in vivo. The note with it: orally administered to male Fisher rat at 3 mg/kg; plasma type IV PDE inhibitory activity as index; in comparison with a comparative compound. How it is done: Test Example 3. Oral absorbability and pharmacokinetic profile evaluation test using type IV PDE inhibitory activity as the index
The following assay was carried out in order to evaluate oral absorbability and pharmacokinetic profiles of the type IV PDE-inhibiting compounds of the invention.
1) Each test compound suspended in purified water containing 0.5% methyl cellulose was orally administered to a seven-week-old male Fisher rat at a dose of 3 mg/kg. In the control group, a solvent (0.5% methyl cellulose in purified water, 3 ml/kg) was administered in the same manner. After the oral administration, blood samples were periodically collected in the presence of heparin from the caudal vein of each rat under ether anesthesia, and plasma was prepared in the usual way.
2) The plasma prepared from each rat administered with the test compound or solvent was added to the type IV PDE measuring system shown in the above Test Example 1 so as to be a final concentration of 0.1%, and the type IV PDE inhibitory activity was measured.

The structures appear in SMILES notation. Where a name gives a salt, the structure may show the parent alone.

One may read the melting point as the temperature, or range, at which the solid turns liquid. In turn, `CCn1c(=O)c(CCC(=O)O)c(-c2cccc(Cl)c2)c2ccc(NC)nc21` [Example 44, 3-[4-(3-chlorophenyl)-1-ethyl-7-methylamino-2-oxo-1,2-dihydro-1,8-naphthyridin-3-yl]propanoic acid] gave a melting point of 202 to 204 °C.

`CCn1c(=O)c(CCC(=N)N)c(-c2cccc(Cl)c2)c2ccc(C)nc21` (as salt: hydrochloride) [Example 40, 3-(2-amidinoethyl)-4-(3-chlorophenyl)-1-ethyl-7-methyl-1,8-naphthyridin-2(1H)-one monohydrochloride]: the melting point lay within 228 to 230 °C.

`CCn1c(=O)c(C(N)=O)c(-c2cccc(Cl)c2)c2ccc(C)nc21` [Example 4, 4-(3-chlorophenyl)-1-ethyl-7-methyl-2-oxo-1,2-dihydro-1,8-naphthyridin-3-carboxamide] displayed a melting point of 249 to 252 °C.

For `CCOC(=O)c1c(-c2cccc(Cl)c2)c2ccc(C)nc2n(CC)c1=O` [Example 1, ethyl 4-(3-chlorophenyl)-1-ethyl-7-methyl-2-oxo-1,2-dihydro-1,8-naphthyridin-3-carboxylate], the melting point fell in the range of 119 to 121 °C.

The molecule `CCn1c(=O)c(CCc2nnn[nH]2)c(-c2cccc(Br)c2)c2ccc(C)nc21` [Example 80] returned a melting point of 194 to 196 °C.

On to `CCn1c(=O)c(C2CCNCC2)c(-c2cccc(Cl)c2)c2ccc(C)nc21` [Example 28, 4-(3-chlorophenyl)-1-ethyl-7-methyl-3-(piperidin-4-yl)-1,8-naphthyridin-2(1H)-one monofumarate], for which the “metabolism by the P450 drug metabolizing enzyme present in the liver microsome” value (shortened to “metabolism”) in series [1] is “hardly metabolized”. The “oral absorbability and metabolic stability” value in series [2] was “good oral absorbability and metabolic stability”.

Consider `CCOC(=O)Nc1c(-c2cccc(Cl)c2)c2ccc(C)nc2n(CC)c1=O` [Example 9, ethyl N-[4-(3-chlorophenyl)-1-ethyl-7-methyl-2-oxo-1,2-dihydro-1,8-naphthyridin-3-yl]carbamate], for which the melting point fell in the range of 183 to 184 °C.

For the molecule `CCn1c(=O)c(CCC(=O)O)c(-c2cccc(Cl)c2)c2ccc(C)nc21` [Example 2, 3-[4-(3-chlorophenyl)-1-ethyl-7-methyl-2-oxo-1,2-dihydro-1,8-naphthyridin-3-yl]propanoic acid], the “metabolism” value in series [1] was “hardly metabolized”. The “oral absorbability and metabolic stability” value in series [2] was “good oral absorbability and metabolic stability”.

`CCn1c(=O)c(CCC(=O)O)c(-c2cccc(C)c2)c2ccc(C)nc21` [Example 77, 3-[1-ethyl-7-methyl-4-(3-methylphenyl)-2-oxo-1,2-dihydro-1,8-naphthyridin-3-yl]propanoic acid]: the melting point was 174 to 175 °C. The “metabolism” value in series [1] is given as “hardly metabolized”. In addition, the “oral absorbability and metabolic stability” value in series [2] was “good oral absorbability and metabolic stability”.

In the case of `CCn1c(=O)c(-c2cccc(C(=O)O)c2)c(-c2cccc(Cl)c2)c2ccc(C)nc21` [Example 21, 3-[4-(3-chlorophenyl)-1-ethyl-7-methyl-2-oxo-1,2-dihydro-1,8-naphthyridin-3-yl]benzoic acid], the melting point was in the range of 254 to 256 °C. In series [1], the “metabolism” value is “hardly metabolized”. Besides, in series [2], the “oral absorbability and metabolic stability” value was “good oral absorbability and metabolic stability”.

On to `CCn1c(=O)c(CCCOC(=O)OC)c(-c2cccc(Cl)c2)c2ccc(C)nc21` [Example 34, 4-(3-chlorophenyl)-1-ethyl-3-[3-(methoxycarbonyloxy)propyl]-7-methyl-1,8-naphthyridin-2(1H)-one], for which the melting point lay in the range of 92 to 93 °C.

`CCn1c(=O)c(CCc2nnn[nH]2)c(C2CCCCC2)c2ccc(C)nc21` [Example 79] yielded a melting point of 207 to 209 °C. Moreover, in series [1], the “metabolism” value is listed as “hardly metabolized”. For the same molecule, the “oral absorbability and metabolic stability” value in series [2] was “good oral absorbability and metabolic stability”.

`CCn1c(=O)c(CCC(=O)N(C)C)c(-c2cccc(Cl)c2)c2ccc(C)nc21` [Example 6, 3-[4-(3-chlorophenyl)-1-ethyl-7-methyl-2-oxo-1,2-dihydro-1,8-naphthyridin-3-yl]-N,N-dimethylpropanamide]: the melting point lay within 134 to 136 °C.

For the molecule `CCn1c(=O)c(N)c(-c2cccc(Cl)c2)c2ccc(C)nc21` [Example 10, 3-amino-4-(3-chlorophenyl)-1-ethyl-7-methyl-1,8-naphthyridin-2(1H)-one], the melting point was in the range of 167 to 171 °C.

The molecule `CCn1c(=O)c(CCC(=O)O)c(-c2cccc(Br)c2)c2ccc(C)nc21` [Example 46, 3-[4-(3-bromophenyl)-1-ethyl-7-methyl-2-oxo-1,2-dihydro-1,8-naphthyridin-3-yl]propanoic acid] had a melting point of 161 to 162 °C.

`CCn1c(=O)c(CCCC(=O)O)c(-c2cccc(Cl)c2)c2ccc(C)nc21` (hydrate or solvate) [Example 61, 4-[4-(3-chlorophenyl)-1-ethyl-7-methyl-2-oxo-1,2-dihydro-1,8-naphthyridin-3-yl]butanoic acid]: the melting point lay in the range of 146 to 148 °C.

In turn, `CCn1c(=O)c(CCCO)c(-c2cccc(Cl)c2)c2ccc(C)nc21` [Example 16, 4-(3-chlorophenyl)-1-ethyl-3-(3-hydroxypropyl)-7-methyl-1,8-naphthyridin-2(1H)-one] showed a melting point of 109 to 110 °C.

Consider `CCn1c(=O)c(CCCNS(C)(=O)=O)c(-c2cccc(Cl)c2)c2ccc(C)nc21` [Example 14, N-{3-[4-(3-chlorophenyl)-1-ethyl-7-methyl-2-oxo-1,2-dihydro-1,8-naphthyridin-3-yl]propyl}methanesulfonamide], for which the melting point lay within 140 to 141 °C.

Molecule `CCn1c(=O)c(CCCOC)c(-c2cccc(Cl)c2)c2ccc(C)nc21` [Example 35, 4-(3-chlorophenyl)-1-ethyl-3-(3-methoxypropyl)-7-methyl-1,8-naphthyridin-2(1H)-one] displayed a melting point of 96 to 97 °C.

For the molecule `CCn1c(=O)c(CCC(=O)O)c(-c2cccs2)c2ccc(C)nc21` [Example 78], the melting point was 188 to 189 °C.

For `CCn1c(=O)c(C2CCNCC2)c(-c2cccc(Cl)c2)c2ccc(C)nc21` (as salt: fumarate) [Example 28, 4-(3-chlorophenyl)-1-ethyl-7-methyl-3-(piperidin-4-yl)-1,8-naphthyridin-2(1H)-one monofumarate], the melting point lay within 225 to 227 °C.

As to `CCn1c(=O)c(CCN2CCC(C(=O)O)CC2)c(-c2cccc(Cl)c2)c2ccc(C)nc21` [Example 38, 1-{2-[4-(3-chlorophenyl)-1-ethyl-7-methyl-2-oxo-1,2-dihydro-1,8-naphthyridin-3-yl]ethyl}piperidine-4-carboxylic acid], the melting point was in the range of 142 to 146 °C.

In turn, `CCn1c(=O)c(CCC(=O)O)c(-c2cccc(Cl)c2)c2ccc(CO)nc21` [Example 42, 3-[4-(3-chlorophenyl)-1-ethyl-7-hydroxymethyl-2-oxo-1,2-dihydro-1,8-naphthyridin-3-yl]propanoic acid] showed a melting point of 157 to 160 °C.

As to `CCn1c(=O)c(CCCc2nnn[nH]2)c(-c2cccc(Cl)c2)c2ccc(C)nc21` [Example 70, 4-(3-chlorophenyl)-1-ethyl-7-methyl-3-[3-(1H-tetrazol-5-yl)propyl]-1,8-naphthyridin-2(1H)-one], the melting point lay within 155 to 158 °C.

(Values after patent publication US6740662B1, “Naphthyridine derivatives” (Yamanouchi Pharmaceutical Co., Ltd., priority 1999, dated 2004).)
